Converted amounts (≈) assume the structure as drawn. “And” between values parts separate entries of the source, which are not always exact repeats. Equal values may be shown once. Read-outs that look alike come from different tables or passages of the source. Values belong to the compound of their own block, whether it stands above or below them.
Tests used:
[1] = target: T1, bovine serum albumin (BSA) (Bos taurus, UniProt P02769); experiment: Isothermal titration calorimetry with bovine serum albumin; type: binding
T1 construct: purchased Sigma Aldrich
T1 sequence (P02769 25-607): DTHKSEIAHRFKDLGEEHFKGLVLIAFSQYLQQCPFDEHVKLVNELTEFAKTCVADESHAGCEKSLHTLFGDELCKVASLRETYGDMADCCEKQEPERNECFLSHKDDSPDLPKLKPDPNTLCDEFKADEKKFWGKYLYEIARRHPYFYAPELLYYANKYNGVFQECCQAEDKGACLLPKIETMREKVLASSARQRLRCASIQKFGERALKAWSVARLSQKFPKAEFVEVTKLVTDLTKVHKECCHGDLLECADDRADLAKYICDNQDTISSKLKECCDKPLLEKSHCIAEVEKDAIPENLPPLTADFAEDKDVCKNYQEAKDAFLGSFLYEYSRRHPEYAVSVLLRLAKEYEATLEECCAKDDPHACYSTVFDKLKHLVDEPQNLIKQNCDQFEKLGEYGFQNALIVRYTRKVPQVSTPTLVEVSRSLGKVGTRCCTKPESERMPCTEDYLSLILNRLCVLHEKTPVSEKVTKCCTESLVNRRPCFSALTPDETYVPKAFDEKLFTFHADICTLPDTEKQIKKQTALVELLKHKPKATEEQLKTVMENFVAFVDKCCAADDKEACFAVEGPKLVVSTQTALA
Description: (§1) Supplementary file pone.0165083.s001.pdf: S1 Fig ITC curves of GML with various mammalian albumins. 150μM of GML was injected incrementally into the sample chamber containing 5μM of mammalian albumins. […] (PDF) Click here for additional data file.

HSA = tested on: HSA
Description: (§2) All samples were degassed, and ITC was performed at room temperature as previously described using MicroCal VP-ITC calorimeter. […] The data were analyzed using a single-site binding model provided in the ITC analysis software package. […] The values for ΔH, Kd and stoichiometry averaged ± standard deviation. […] The values for stoichiometry and binding affinity were derived from the ITC experiments.
While the presence of other ligands would increase the proportion of free floating GML unbound to albumin, we assumed there were no other albumin ligands present in the system to simplify our calculations.
(PDF) Click here for additional data file.

pig serum albumin (PSA) = target: T2, pig serum albumin (PSA) (Sus scrofa, UniProt P08835); experiment: Isothermal titration calorimetry with pig serum albumin; type: binding
T2 construct: purchased Sigma Aldrich
T2 sequence (P08835 25-607): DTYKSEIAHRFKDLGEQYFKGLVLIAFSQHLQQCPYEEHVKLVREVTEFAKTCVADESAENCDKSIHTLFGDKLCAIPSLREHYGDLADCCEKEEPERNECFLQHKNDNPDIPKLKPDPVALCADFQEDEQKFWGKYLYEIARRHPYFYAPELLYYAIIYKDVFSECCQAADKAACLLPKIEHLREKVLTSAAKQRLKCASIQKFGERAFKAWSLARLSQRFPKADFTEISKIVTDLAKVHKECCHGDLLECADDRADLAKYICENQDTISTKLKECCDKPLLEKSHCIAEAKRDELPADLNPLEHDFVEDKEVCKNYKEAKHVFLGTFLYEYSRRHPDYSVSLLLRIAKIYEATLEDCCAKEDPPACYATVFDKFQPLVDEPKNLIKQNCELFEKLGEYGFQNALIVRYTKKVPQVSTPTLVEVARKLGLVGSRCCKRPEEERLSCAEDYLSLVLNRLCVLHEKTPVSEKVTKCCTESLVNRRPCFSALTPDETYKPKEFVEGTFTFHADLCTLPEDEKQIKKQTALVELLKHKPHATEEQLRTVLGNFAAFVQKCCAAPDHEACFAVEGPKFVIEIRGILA
Description: as §1

IL-10 production = experiment: ELISA of TCR-induced IL-10 production by APBTs; type: cell-based, human
Description: (§3) The cells were then stimulated with plate-bound 2 μg/ml of anti-CD3 (Biolegend) for 24 hours. Protein concentrations of IL-2, IFN-γ, IL-10, and TNF-α in the media supernatants were measured by standard TMB ELISA.
(§4) Cells were plated on 2 μg/ml anti-CD3 coated plates for 24 hours. Extracellular cytokine production for (A) IFN-γ, (B) IL-2, (C) IL-10, or (D) TNFα was measured by ELISA in 3 independent experiments with different human donors.

[2] = cited from earlier work
[3] = tested on: AKT phosphorylation at threonine 308 and serine 473; experiment: TCR-induced AKT phosphorylation by immunoblotting in APBTs; type: cell-based, human
Description: The cells were then incubated on ice with 2 μg/ml anti-CD3 for 30 minutes. […] Cells were then lysed with 2X sample buffer, heated to 95°C, and sonicated.
Cell lysates were separated by polyacrylamide gel electrophoresis and transferred to PVDF. The membranes were blocked in 0.5X SEA BLOCK blocking buffer diluted in PBS. Primary antibodies were incubated overnight at 4°C. Secondary antibodies were incubated with the membrane for 30 minutes at room temperature and then imaged using Licor Odyssey (Lincoln, NE, USA). At least four independent replicates with different human donors were performed for each experiment. Immunoblot band intensity was quantified using Odyssey’s v3.0 software with the intensity of the phospho-specific antibody normalized to the intensity of the GAPDH antibody. To minimize variability between human donors, band intensities were further normalized to maximal band intensity of ethanol vehicle control. The following antibodies were used for immunoblotting: AKT pThr 308 (Cell Signaling), AKT pS473 (Invitrogen), GAPDH (Meridian Life Sciences), and IRDye 800CW or IRDye680-conjugated secondary antibodies (Thermo Scientific).
Cells were stimulated by crosslinking 2 μg/ml of anti-CD3 for various times. Phosphorylation of AKT at threonine 308 and serine 473 were assessed by immunoblotting.

[4] = tested on: PLC-γ1 pY783 microclusters; experiment: TIRF microscopy of PLC-γ1 microcluster formation in APBTs; type: cell-based, human
Description: (§5) APBTs were stimulated in the presence of 0.1% ethanol control or 10 μg/ml GML with plate-bound anti-CD3 on glass coverslips, fixed with 4% paraformaldehyde, permeabilized with 0.25% Triton-X, and stained as described below. To detect microcluster formation of TCR signaling proteins, antibodies specific for LAT pY226 (BD Pharmingen), PLC-γ pY783 (Cell Signaling, and total AKT (Cell signaling) were incubated with fixed and permeabilized cells overnight for 4°C. Subsequently, conjugated secondary antibodies Dylight Goat anti-rabbit IgG and DyLight 568 Goat anti-rabbit IgG (Biolegend) as well as Alexa Fluor 488 goat anti-mouse IgG1 (Thermo Fisher) were incubated with the cells at room temperature for 2 hours. All images were captured by the Leica AM TIRF MC system using 100x magnification oil immersion objective lens at room temperature at the University of Iowa Central Microscopy Research Facility.
(§6) TIRF microscopy images were processed and analyzed using ImageJ. Quantification of membrane clustering was done by measuring mean pixel intensity in the […] of cells for 60 cells total from at least 3 independent experiments. Similar quantification methods have been used in other published reports.
(§7) (A). […] Pixel intensities of median axis of each cell in images obtained in (A) were quantified and averaged using ImageJ. […]

[5] = target: T3, mouse serum albumin (MSA) (Mus musculus, UniProt P07724); experiment: Isothermal titration calorimetry with mouse serum albumin; type: binding
T3 construct: purchased Sigma Aldrich
T3 sequence (P07724 25-608): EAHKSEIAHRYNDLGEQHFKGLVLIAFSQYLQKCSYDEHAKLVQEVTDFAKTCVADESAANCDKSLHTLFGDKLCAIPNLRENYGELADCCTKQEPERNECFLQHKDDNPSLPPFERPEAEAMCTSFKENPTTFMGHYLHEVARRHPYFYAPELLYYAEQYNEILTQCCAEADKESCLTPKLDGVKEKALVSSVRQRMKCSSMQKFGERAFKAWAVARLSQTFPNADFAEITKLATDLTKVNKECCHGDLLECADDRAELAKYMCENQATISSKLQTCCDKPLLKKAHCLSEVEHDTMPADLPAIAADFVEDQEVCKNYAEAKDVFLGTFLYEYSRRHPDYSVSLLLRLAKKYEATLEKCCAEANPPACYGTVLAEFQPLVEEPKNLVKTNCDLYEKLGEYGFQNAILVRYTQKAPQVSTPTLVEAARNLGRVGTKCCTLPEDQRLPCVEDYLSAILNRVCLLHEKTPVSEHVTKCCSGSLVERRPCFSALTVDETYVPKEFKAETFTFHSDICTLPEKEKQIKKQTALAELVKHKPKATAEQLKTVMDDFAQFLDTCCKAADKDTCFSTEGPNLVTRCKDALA
Description: as §1

[6] = target: human serum albumin (HSA) (Homo sapiens, UniProt P02768); experiment: Isothermal titration calorimetry with human serum albumin; conditions: for ΔH: room temperature, pH 7.4
Chain of human serum albumin (HSA) (P02768 25-609): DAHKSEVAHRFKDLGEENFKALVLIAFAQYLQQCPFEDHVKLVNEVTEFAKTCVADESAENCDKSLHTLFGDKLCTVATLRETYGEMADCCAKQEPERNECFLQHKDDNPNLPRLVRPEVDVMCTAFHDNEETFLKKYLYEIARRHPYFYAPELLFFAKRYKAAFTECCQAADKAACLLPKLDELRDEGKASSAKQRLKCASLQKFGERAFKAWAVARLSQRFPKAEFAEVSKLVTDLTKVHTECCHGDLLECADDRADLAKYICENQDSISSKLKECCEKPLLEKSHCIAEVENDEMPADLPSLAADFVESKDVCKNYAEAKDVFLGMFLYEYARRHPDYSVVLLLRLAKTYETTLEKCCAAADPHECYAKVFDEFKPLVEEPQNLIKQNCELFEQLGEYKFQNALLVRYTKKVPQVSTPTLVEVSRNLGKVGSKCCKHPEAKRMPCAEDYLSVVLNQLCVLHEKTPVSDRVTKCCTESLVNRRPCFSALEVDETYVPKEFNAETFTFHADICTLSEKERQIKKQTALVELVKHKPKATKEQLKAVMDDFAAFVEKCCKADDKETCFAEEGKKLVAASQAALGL
Description: as §2
150 μM of ethanol solubilized GML was placed in the syringe and injected into the sample chamber twenty one times with 180 seconds interval between injections.

TNF-α production = experiment: ELISA of TCR-induced TNF-α production by APBTs; type: cell-based, human
Description: as §3
(§8) Cells were plated on 2 μg/ml anti-CD3 coated plates for 24 hours. Extracellular cytokine production for (A) IFN-γ, (B) IL-2, (C) IL-10, or (D) TNFα was measured by ELISA in 3 independent experiments with different human donors. To statistically confirm that GML is suppressing cytokine production without serum, Student t’s test was done by comparing EtOH treated groups with GML treated groups under the same serum free environment, indicated by the black bars, with # denoting p<0.05.

total AKT microclusters = experiment: TIRF microscopy of AKT microcluster formation in APBTs; type: cell-based, human
Description: as §5, §6, §7

LAT pY226 microclusters = experiment: TIRF microscopy of LAT microcluster formation in APBTs; type: cell-based, human
Description: as §5, §6, §7

IFN-γ production = experiment: ELISA of TCR-induced IFN-γ production by APBTs; type: cell-based, human
Description: as §3, §4

IL-2 production = experiment: ELISA of TCR-induced IL-2 production by APBTs; type: cell-based, human
Description: as §3, §8

[7] = target: T4, rabbit serum albumin (RSA) (Oryctolagus cuniculus, UniProt P49065); experiment: Isothermal titration calorimetry with rabbit serum albumin; type: binding
T4 construct: purchased Sigma Aldrich
T4 sequence (P49065 25-608): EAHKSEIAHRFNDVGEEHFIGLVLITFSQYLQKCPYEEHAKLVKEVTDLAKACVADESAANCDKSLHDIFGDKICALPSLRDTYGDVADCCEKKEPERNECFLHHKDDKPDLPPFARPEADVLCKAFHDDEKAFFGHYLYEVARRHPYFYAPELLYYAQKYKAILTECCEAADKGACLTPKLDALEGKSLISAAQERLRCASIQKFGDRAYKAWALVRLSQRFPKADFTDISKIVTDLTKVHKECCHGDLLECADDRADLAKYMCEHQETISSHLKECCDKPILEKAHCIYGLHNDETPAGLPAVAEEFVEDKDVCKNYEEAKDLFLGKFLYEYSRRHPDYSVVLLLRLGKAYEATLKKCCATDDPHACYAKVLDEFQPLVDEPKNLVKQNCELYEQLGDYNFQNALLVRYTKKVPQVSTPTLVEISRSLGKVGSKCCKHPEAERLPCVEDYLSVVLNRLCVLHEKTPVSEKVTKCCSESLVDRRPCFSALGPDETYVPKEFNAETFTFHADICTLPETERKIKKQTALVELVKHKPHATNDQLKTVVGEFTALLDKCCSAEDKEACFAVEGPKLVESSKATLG
Description: as §1

[8] = GML doses 10 μg/ml or greater, absence of serum albumin, anti-CD3 24 hours
[9] = 10 μg/ml GML, serum free media, significant at 5 and 15 minutes post stimulation
[10] = ITC, single-site model, 5 μM albumin, 150 μM ligand

Compound: CCCCCCCCCCCC(=O)OCC(O)CO (stereo not shown) [GML, Glycerol monolaurate]
Kd [1]: 2.2 ± 1.1 µM
ΔH ([1]; ITC, single-site model, BSA): -4.5 ± 0.77 kcal/mol
GML molecules bound to HSA (HSA; 10 and 20 μg/ml GML, all HSA concentrations, no other ligands assumed): > 90%
GML bound to albumin (HSA; low-albumin sites (urine, vaginal secretions, CSF etc.), GML doses less than 20 μg/ml): mostly bound
albumin bound to GML (HSA; lymphatic fluid, albumin 40% to 90% of the serum concentration): > 99%
GML molecules bound to albumin (HSA; plasma albumin 35 to 50 g/L, concentrations where GML is soluble, Kd 1.4 μM): > 99%
concentration of GML-HSA complexes relative to free GML molecules (HSA; skin wound exudate albumin 10 to 30 g/L, GML doses between 500 to 5000 μg/ml): within one order of magnitude
GML molecules bound to HSA (HSA; skin wound exudate albumin 10 to 30 g/L, GML doses greater than 5000 μg/ml): < 2%
GML bound to HSA (HSA; skin wound exudate albumin 10 to 30 g/L, GML doses less than 500 μg/ml): > 90%
Kd (pig serum albumin (PSA)): 4.5 ± 1.6 µM
ΔH (pig serum albumin (PSA); ITC, single-site model, PSA): -2.0 ± 0.63 kcal/mol
IL-10 production vs control APBTs (IL-10 production; 10 μg/ml GML, all doses of HSA): significantly increased
IL-10 production vs GML in serum free media (IL-10 production; 20 μg/ml GML, all concentrations of HSA tested): did not restore
IL-10 production vs ethanol control (IL-10 production; [8]): significantly reduced
aqueous solubility cap ([2]; aqueous, under 37°C, stated as a fact, no reference printed for it): 100 µg/mL (≈ 364 µM)
solubility in gel formulations ([2]; topical GML in gel formulations ref [3],[19]): up to 50 mg/ml
AKT T308 phosphorylation vs GML alone ([3]; 10 μg/ml GML in 1% HSA, 5 and 15 minutes post stimulation): significantly increased
AKT S473 phosphorylation vs GML alone ([3]; 10 μg/ml GML in 1% HSA, 15 minutes post stimulation): significantly increased
phosphorylation of both AKT residues (T308, S473) post stimulation vs GML treated cells ([3]; 10 μg/ml GML in 1% HSA, below levels in ethanol control): modest increase
AKT S473 phosphorylation vs ethanol control [3, 9]: drastically suppressed
AKT T308 phosphorylation vs ethanol control [3, 9]: drastically suppressed
PLC-γ1 clustering ([4]; 10 μg/ml GML alone): inhibits
PLC-γ1 clustering in GML treated cells ([4]; 10 μg/ml GML with 1% HSA): relieves this inhibition
Kd [5]: 6.3 ± 2.7 µM
ΔH ([5]; ITC, single-site model, MSA): -4.9 ± 1.1 kcal/mol
ΔH [6, 10]: -3.0 ± 1.1 kcal/mol
Kd ([6]; Kd, ITC, single-site model, 5 μM albumin, 150 μM ligand): ~1.4 µM and 1.4 µM
TNF-α production vs GML in serum free media (TNF-α production; 10 and 20 μg/ml GML, all concentrations of HSA): significantly increased
TNFα production vs ethanol control (TNF-α production; [8]): significantly reduced
AKT clustering (total AKT microclusters; 10 μg/ml GML alone): inhibits
AKT clustering in GML treated cells (total AKT microclusters; 10 μg/ml GML with 1% HSA): relieves this inhibition
LAT microcluster formation in GML treated cells (LAT pY226 microclusters; 10 μg/ml GML in 1% HSA, to levels similar to ethanol and HSA controls): significantly increased
LAT clustering at the membrane (LAT pY226 microclusters; 10 μg/ml GML, serum free media): drastically decreased
IFN-γ production vs GML treatment alone (IFN-γ production; 1% or 0.2% HSA, 10 μg/ml GML): significant restoration
IFN-γ production vs GML treatment alone (IFN-γ production; 2% HSA, both GML doses (10 and 20 μg/ml)): significantly restored
IFNγ production vs ethanol control (IFN-γ production; [8]): significantly reduced
IL-2 production vs GML in serum free media (IL-2 production; 10 μg/ml GML, 2% and 1% HSA): significantly increased
IL-2 production vs GML in serum free conditions (IL-2 production; 20 μg/ml GML, all HSA doses): did not have significantly increased
IL-2 production vs ethanol control (IL-2 production; [8]): significantly reduced
Kd [7]: 5.4 ± 1.3 µM
ΔH ([7]; ITC, single-site model, RSA): -4.5 ± 0.61 kcal/mol

Kd [6]: > 50 µM
binding reaction with HSA ([6]; ITC, 5 μM HSA, 150 μM glycerol): did not have measurable binding reaction
Compound: OCC(O)CO [Glycerol, glycerol]

Kd [6, 10]: 4.9 ± 1.1 µM
ΔH [6, 10]: -24 kcal/mol and -24 ± 0.63 kcal/mol
n (stoichiometry) ([6]; ITC, single-site model, ligand:HSA): 1.1 ± 0.4
Compound: CCCCCCCCCCCC(=O)O [LA, Lauric acid]

Reference: publication PMC5072635 (PLoS ONE, 2016)
